Test results as given in ChEMBL document CHEMBL1201862, “PubChem BioAssay data set” (2004).
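These data come from cells grown in 96-well plates and exposed to compound for 48 hours at five concentrations. GI50 = concentration required for 50% inhibition of growth.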 Calls of active or inactive are those of the source. No stated cut-off is given here; in the data, active = GI50 up to about 1.1 µM and inactive = higher.

Experiments:
Experiment in all cases: DTP human tumour cell line panel, 48 h
A549 = system: A549
CAKI-1 = system: CAKI-1
COLO 205 = system: COLO 205
EKVX = system: EKVX
HCC 2998 = system: HCC 2998
HCT-15 = system: HCT-15
IGROV-1 = system: IGROV-1
KM12 = system: KM12
LOX IMVI = system: LOX IMVI
Malme-3M = system: Malme-3M
NCI-H23 = system: NCI-H23
OVCAR-3 = system: OVCAR-3
OVCAR-5 = system: OVCAR-5
OVCAR-8 = system: OVCAR-8
SK-OV-3 = system: SK-OV-3
SN12C = system: SN12C
SW-620 = system: SW-620
UACC-62 = system: UACC-62
M14 = system: M14
TK-10 = system: TK-10

Compound | GI50 (A549) | GI50 (CAKI-1) | GI50 (COLO 205) | GI50 (EKVX) | GI50 (HCC 2998) | GI50 (HCT-15) | GI50 (IGROV-1) | GI50 (KM12) | GI50 (LOX IMVI) | GI50 (Malme-3M) | GI50 (NCI-H23) | GI50 (OVCAR-3) | GI50 (OVCAR-5) | GI50 (OVCAR-8) | GI50 (SK-OV-3) | GI50 (SN12C) | GI50 (SW-620) | GI50 (UACC-62) | GI50 (M14) | GI50 (TK-10)
O=C(CC1=NCCN1)c1ccccc1 | > 213 µM (inactive) | > 750 µM (inactive) | > 750 µM (inactive) | > 750 µM (inactive) | > 750 µM (inactive) | > 750 µM | > 750 µM (inactive) | > 750 µM (inactive) | > 750 µM (inactive) | > 617 µM (inactive) | > 750 µM (inactive) | > 750 µM (inactive) | > 750 µM (inactive) | > 750 µM (inactive) | > 750 µM (inactive) | > 750 µM (inactive) | > 750 µM (inactive) | > 750 µM (inactive) | – | –
CN(C)CCNC(=O)c1cccc2c1nc(-c1cccnc1)c1ccccc12 | 1.21 µM (inactive) | 2.45 µM (inactive) | 4.47 µM (inactive) | 4.24 µM (inactive) | 6.9 µM (inactive) | 3.74 µM | 1.73 µM (inactive) | 6.78 µM (inactive) | 2.15 µM (inactive) | – | 4.24 µM (inactive) | 10.1 µM (inactive) | 8.83 µM (inactive) | 4.81 µM (inactive) | 10 µM (inactive) | 3.3 µM (inactive) | 2.17 µM (inactive) | 3.57 µM (inactive) | 6.67 µM (inactive) | 2.25 µM (inactive)
Cc1ccc(/C=C2\Cc3c(C)cc(C)cc3C2=O)c(C(=O)O)c1 | 49.9 µM (inactive) | > 100 µM (inactive) | 34.8 µM (inactive) | 33.4 µM (inactive) | 38.4 µM (inactive) | 36.3 µM | 79.8 µM (inactive) | 46.3 µM (inactive) | 22.6 µM (inactive) | 72.3 µM (inactive) | 55.5 µM (inactive) | 31 µM (inactive) | 33.2 µM (inactive) | 51.8 µM (inactive) | – | 67.5 µM (inactive) | 47.4 µM (inactive) | 41.1 µM (inactive) | > 100 µM (inactive) | 83.4 µM (inactive)
COc1cc(OC)nc(-n2c(N)c(C(=O)O)c3ccc([N+](=O)[O-])cc3c2=O)n1 | > 100 µM (inactive) | > 100 µM (inactive) | > 100 µM (inactive) | > 100 µM (inactive) | > 100 µM (inactive) | > 100 µM | 67.8 µM (inactive) | > 100 µM (inactive) | > 100 µM (inactive) | > 100 µM (inactive) | > 100 µM (inactive) | > 100 µM (inactive) | > 100 µM (inactive) | > 100 µM (inactive) | > 100 µM (inactive) | > 100 µM (inactive) | 88.1 µM (inactive) | > 100 µM (inactive) | > 100 µM (inactive) | –
O=C1NC2CCCCCC2C12CCCCC2 (stereo not drawn) | > 100 µM (inactive) | – | – | > 100 µM (inactive) | > 100 µM (inactive) | > 100 µM | > 100 µM (inactive) | > 100 µM (inactive) | > 100 µM (inactive) | > 100 µM (inactive) | > 100 µM (inactive) | > 100 µM (inactive) | > 100 µM (inactive) | – | > 100 µM (inactive) | > 100 µM (inactive) | > 100 µM (inactive) | > 100 µM (inactive) | > 100 µM (inactive) | > 100 µM (inactive)
COc1cc(/C=C/C(=O)O)ccc1C(=O)OCc1ccccc1 | > 100 µM (inactive) | – | > 100 µM (inactive) | > 100 µM (inactive) | > 100 µM (inactive) | > 100 µM | > 100 µM (inactive) | > 100 µM (inactive) | > 100 µM (inactive) | > 100 µM (inactive) | > 100 µM (inactive) | > 100 µM (inactive) | > 100 µM (inactive) | > 100 µM (inactive) | > 100 µM (inactive) | > 100 µM (inactive) | > 100 µM (inactive) | > 100 µM (inactive) | – | –
O=c1cnnc2sc(=S)[nH]n12 | 46.7 µM (inactive) | 21.9 µM (inactive) | > 100 µM (inactive) | > 100 µM (inactive) | 44.5 µM (inactive) | 19.6 µM | 24 µM (inactive) | > 100 µM (inactive) | 4.13 µM (inactive) | 31 µM (inactive) | – | 32.4 µM (inactive) | > 100 µM (inactive) | 16.4 µM (inactive) | – | – | 12.4 µM (inactive) | 18.2 µM (inactive) | 84.1 µM (inactive) | –
CN(C)CCNC(=O)c1cccc2cc3cc(O)ccc3nc12 | 0.811 µM (active) | < 0.0499 µM (active) | 0.897 µM (active) | 1.95 µM (inactive) | 2.2 µM (inactive) | 1.23 µM | 1.37 µM (inactive) | 2.12 µM (inactive) | 0.857 µM (active) | 1.22 µM (inactive) | 1.24 µM (inactive) | 1.13 µM (inactive) | 1.46 µM (inactive) | 0.796 µM (active) | 1.46 µM (inactive) | 1.1 µM (active) | 0.611 µM (active) | 1.33 µM (inactive) | – | –
